Laboratory results as given in publication PMC9023544, “Ketone-selenoesters as potential anticancer and multidrug resistance modulation agents in 2D and 3D ovarian and breast cancer in vitro models” (Scientific Reports, 2022).

Test system: ABC superfamily genes in MCF-7/PAX
Assay: Expression of genes encoding ABC transporters, qPCR
Format: cell-based, human
Method: Based on the fact that compounds K3, K4, K7 sensitized drug-resistant cell lines (HOC/ADR, MCF-7/PAX) and modulated ATPase activity of one from the ABC proteins (P-gp), we verified the potential of these compounds to affect ABC superfamily gene expression. The ovarian and breast cancer cell lines (parental cells and resistant sub-line) were analysed for the expression profile of genes encoding the ABC proteins in the previous works[18]–[20]. […] After 48 h, the effect of compounds alone or in the combination with cytostatics was observed (Supplementary Tables 1, Table 2).
To determine the impact of selected compounds on the expression of genes encoding ABC transporter, HOC/ADR and MCF-7/PAX cells were seeded for 24 h into 5 cm Petri dishes with DMEM medium at the cell density 1 × 10^5 cells/mL. Afterwards, the cells were washed 1× with PBS and new fresh DMEM supplemented with K3, K4, and K7 (in concentration corresponding to their IC10 value) alone or combined with cytostatics (Adriamycin or paclitaxel in concentration corresponding to their IC25 value) was added. In the experiment, positive and negative control was also included (positive—untreated cells, negative—cells treated only with cytostatics). After 48 h exposure, the cells were washed once with PBS and released from the surface by using the above-mentioned trypsin–EDTA procedure. The enzyme reaction was stopped by medium addition and the cells were centrifuged (3200×g; 10 min, 4 °C). The supernatants were removed and before the next centrifugation, the pellets were resuspended in 1.5 mL of cooled PBS (5400×g; 10 min, 4 °C). After the second washing step, the cells were centrifuged another time (10,000×g; 3 min, 4 °C). Subsequently, 1 mL of Trizol (Invitrogen) was added to the pellets and the compounds were stored − 80 °C.
The RNA concentration of selenoester treated samples was determined using QuantiT RiboGreen RNA Assay Kit and Infinite M200 plate reader (Tecan, Männedor, Switzerland). The cDNA was synthesized from 0.5 µg of total RNA by RevertAid First Strand Synthesis cDNA Kit (MBI Fermentas, Vilnius, Lithuania). To determine the quality of cDNA, the ubiquitin C gene fragment was amplified. The experiment was performed in 384-well block by using ViiA7 Real-Time PCR System (Life Technologies, Camarillo, California, United States). A master mix contained 0.25 µL of 20× TaqMan Gene Expression Assay, 1 µL of 5× HotFIREPol Probe qPCR Mix Plus, 1.75 µL of RNase free water and 2 µL of 8× diluted cDNA. The final reaction volume was 5 µL. The PCR parameters were as follows: initial hold (50 °C for 2 min), denaturation (95 °C for 10 min), followed by 45 cycles (denaturation at 95 °C for 15 s, annealing at 60 °C for 1 min). After each cycle, the fluorescent signal was determined. For each compound, duplicates were analysed and those with a standard deviation higher than 0.5 Ct were re-analysed. A quantitate real-time PCR was followed by MIQE guidelines. To compare the relative transcript levels of genes, the software REST 2009 (Qiagen, Hilden, Germany) was used.
Table 2. Effect of selenoesters either on the expression of the ABC gene superfamily in paclitaxel-resistant breast cancer cell line (MCF-7/PAX).
Gene expression of ABC transporters were estimated using comercial predesigned Taqman Gene Expression Assays (Life technologies). TaqMan Gene Expression Assays are based on 5´ nuclease chemistry, and each assay contains the primer and probe set for target of interest. Taqman assays IDs and GenBank Accession numbers of reference sequencies identifying their location and amplicon lengths are included in the Supplementary Table I. * Relative transcript levels (P-value ) in treated and non-treated cancer cell lines were compared using REST 2009 software.

CC(=O)C[Se]C(=O)c1ccccc1C(F)(F)F [K4]
number of ABC genes with altered expression: 31
ABCA2 Expression Difference (IC10 alone, 48 h): 0.282
ABCA2 Treated vs. Untr. (IC10 alone, 48 h): DOWN
ABCA3 Expression Difference (IC10 alone, 48 h): 0.766
ABCA3 Treated vs. Untr. (IC10 alone, 48 h): DOWN
ABCA4 Expression Difference (IC10 alone, 48 h): 40.43
ABCA5 Expression Difference (IC10 alone, 48 h): 0.789
ABCA5 Treated vs. Untr. (IC10 alone, 48 h): DOWN
ABCA7 Expression Difference (IC10 alone, 48 h): 0.757
ABCA7 Treated vs. Untr. (IC10 alone, 48 h): DOWN
ABCA12 Expression Difference (IC10 alone, 48 h): 1.702
ABCB1 Expression Difference (IC10 alone, 48 h): 0.568
ABCB1 Treated vs. Untr. (IC10 alone, 48 h): DOWN
ABCB2 Expression Difference (IC10 alone, 48 h): 0.467
ABCB2 Treated vs. Untr. (IC10 alone, 48 h): DOWN
ABCB3 Expression Difference (IC10 alone, 48 h): 0.323
ABCB3 Treated vs. Untr. (IC10 alone, 48 h): DOWN
ABCB6 Expression Difference (IC10 alone, 48 h): 0.524
ABCB6 Treated vs. Untr. (IC10 alone, 48 h): DOWN
ABCB7 Expression Difference (IC10 alone, 48 h): 0.214
ABCB7 Treated vs. Untr. (IC10 alone, 48 h): DOWN
ABCB8 Expression Difference (IC10 alone, 48 h): 0.683
ABCB8 Treated vs. Untr. (IC10 alone, 48 h): DOWN
ABCB9 Expression Difference (IC10 alone, 48 h): 0.639
ABCB9 Treated vs. Untr. (IC10 alone, 48 h): DOWN
ABCB10 Expression Difference (IC10 alone, 48 h): 1.163
ABCC1 Expression Difference (IC10 alone, 48 h): 0.398
ABCC1 Treated vs. Untr. (IC10 alone, 48 h): DOWN
ABCC2 Expression Difference (IC10 alone, 48 h): 0.127
ABCC2 Treated vs. Untr. (IC10 alone, 48 h): DOWN
ABCC3 Expression Difference (IC10 alone, 48 h): 26.21
ABCC4 Expression Difference (IC10 alone, 48 h): 0.316
ABCC4 Treated vs. Untr. (IC10 alone, 48 h): DOWN
ABCC5 Expression Difference (IC10 alone, 48 h): 1.378
ABCC6 Expression Difference (IC10 alone, 48 h): 2.041
ABCC8 Expression Difference (IC10 alone, 48 h): 1.590
ABCC10 Expression Difference (IC10 alone, 48 h): 0.265
ABCC10 Treated vs. Untr. (IC10 alone, 48 h): DOWN
ABCD1 Expression Difference (IC10 alone, 48 h): 0.179
ABCD1 Treated vs. Untr. (IC10 alone, 48 h): DOWN
ABCD3 Expression Difference (IC10 alone, 48 h): 0.365
ABCD3 Treated vs. Untr. (IC10 alone, 48 h): DOWN
ABCD4 Expression Difference (IC10 alone, 48 h): 1.288
ABCE1 Expression Difference (IC10 alone, 48 h): 0.795
ABCE1 Treated vs. Untr. (IC10 alone, 48 h): DOWN
ABCF1 Expression Difference (IC10 alone, 48 h): 3.646
ABCF2 Expression Difference (IC10 alone, 48 h): 0.942
ABCF3 Expression Difference (IC10 alone, 48 h): 0.753
ABCF3 Treated vs. Untr. (IC10 alone, 48 h): DOWN
ABCG1 Expression Difference (IC10 alone, 48 h): 0.325
ABCG1 Treated vs. Untr. (IC10 alone, 48 h): DOWN
ABCG2 Expression Difference (IC10 alone, 48 h): 0.378
ABCG2 Treated vs. Untr. (IC10 alone, 48 h): DOWN
ABCG4 Expression Difference (IC10 alone, 48 h): 0.412
ABCG4 Treated vs. Untr. (IC10 alone, 48 h): DOWN
decrease of expression of ABCB1 (P-gp) encoding gene (IC10 alone, 48 h): 43%
downregulation of expression of ABCC1 (MRP1) (IC10 alone, 48 h): 60%
downregulation of expression of ABCG2 (IC10 alone, 48 h): 62%

CC(=O)C[Se]C(=O)c1ccc(C(C)(C)C)cc1 [K7]
number of ABC genes with altered expression: 32
ABCA2 Expression Difference (IC10 alone, 48 h): 0.159
ABCA2 Treated vs. Untr. (IC10 alone, 48 h): DOWN
ABCA3 Expression Difference (IC10 alone, 48 h): 0.376
ABCA3 Treated vs. Untr. (IC10 alone, 48 h): DOWN
ABCA4 Expression Difference (IC10 alone, 48 h): 20.68
ABCA5 Expression Difference (IC10 alone, 48 h): 0.600
ABCA5 Treated vs. Untr. (IC10 alone, 48 h): DOWN
ABCA7 Expression Difference (IC10 alone, 48 h): 0.384
ABCA7 Treated vs. Untr. (IC10 alone, 48 h): DOWN
ABCA12 Expression Difference (IC10 alone, 48 h): 0.745
ABCA12 Treated vs. Untr. (IC10 alone, 48 h): DOWN
ABCB1 Expression Difference (IC10 alone, 48 h): 0.361
ABCB1 Treated vs. Untr. (IC10 alone, 48 h): DOWN
ABCB2 Expression Difference (IC10 alone, 48 h): 0.274
ABCB2 Treated vs. Untr. (IC10 alone, 48 h): DOWN
ABCB3 Expression Difference (IC10 alone, 48 h): 0.164
ABCB3 Treated vs. Untr. (IC10 alone, 48 h): DOWN
ABCB6 Expression Difference (IC10 alone, 48 h): 0.305
ABCB6 Treated vs. Untr. (IC10 alone, 48 h): DOWN
ABCB7 Expression Difference (IC10 alone, 48 h): 0.131
ABCB7 Treated vs. Untr. (IC10 alone, 48 h): DOWN
ABCB8 Expression Difference (IC10 alone, 48 h): 0.407
ABCB8 Treated vs. Untr. (IC10 alone, 48 h): DOWN
ABCB9 Expression Difference (IC10 alone, 48 h): 0.340
ABCB9 Treated vs. Untr. (IC10 alone, 48 h): DOWN
ABCB10 Expression Difference (IC10 alone, 48 h): 0.822
ABCB10 Treated vs. Untr. (IC10 alone, 48 h): DOWN
ABCC1 Expression Difference (IC10 alone, 48 h): 0.238
ABCC1 Treated vs. Untr. (IC10 alone, 48 h): DOWN
ABCC2 Expression Difference (IC10 alone, 48 h): 0.061
ABCC2 Treated vs. Untr. (IC10 alone, 48 h): DOWN
ABCC3 Expression Difference (IC10 alone, 48 h): 15.69
ABCC4 Expression Difference (IC10 alone, 48 h): 0.213
ABCC4 Treated vs. Untr. (IC10 alone, 48 h): DOWN
ABCC5 Expression Difference (IC10 alone, 48 h): 0.933
ABCC5 Treated vs. Untr. (IC10 alone, 48 h): DOWN
ABCC6 Expression Difference (IC10 alone, 48 h): 0.424
ABCC6 Treated vs. Untr. (IC10 alone, 48 h): DOWN
ABCC8 Expression Difference (IC10 alone, 48 h): 0.651
ABCC8 Treated vs. Untr. (IC10 alone, 48 h): DOWN
ABCC10 Expression Difference (IC10 alone, 48 h): 0.170
ABCC10 Treated vs. Untr. (IC10 alone, 48 h): DOWN
ABCD1 Expression Difference (IC10 alone, 48 h): 0.104
ABCD1 Treated vs. Untr. (IC10 alone, 48 h): DOWN
ABCD3 Expression Difference (IC10 alone, 48 h): 0.247
ABCD3 Treated vs. Untr. (IC10 alone, 48 h): DOWN
ABCD4 Expression Difference (IC10 alone, 48 h): 0.872
ABCD4 Treated vs. Untr. (IC10 alone, 48 h): DOWN
ABCE1 Expression Difference (IC10 alone, 48 h): 0.505
ABCE1 Treated vs. Untr. (IC10 alone, 48 h): DOWN
ABCF1 Expression Difference (IC10 alone, 48 h): 2.263
ABCF2 Expression Difference (IC10 alone, 48 h): 0.601
ABCF2 Treated vs. Untr. (IC10 alone, 48 h): DOWN
ABCF3 Expression Difference (IC10 alone, 48 h): 0.484
ABCF3 Treated vs. Untr. (IC10 alone, 48 h): DOWN
ABCG1 Expression Difference (IC10 alone, 48 h): 0.307
ABCG1 Treated vs. Untr. (IC10 alone, 48 h): DOWN
ABCG2 Expression Difference (IC10 alone, 48 h): 0.207
ABCG2 Treated vs. Untr. (IC10 alone, 48 h): DOWN
ABCG4 Expression Difference (IC10 alone, 48 h): 0.188
ABCG4 Treated vs. Untr. (IC10 alone, 48 h): DOWN
decrease of expression of ABCB1 (P-gp) encoding gene (IC10 alone, 48 h): 64%
downregulation of expression of ABCC1 (MRP1) (IC10 alone, 48 h): 76%
downregulation of expression of ABCG2 (IC10 alone, 48 h): 80%
